# Test results reported in ChEMBL document CHEMBL1150146, “New terpenoids from the brown alga Stypopodium zonale” (J Nat Prod, 2002).
# Assays:
# Type in all cases: functional, cell-based
# [1] = tested on: A549; test: Cytotoxicity against human A549 cells
# [2] = Cytotoxicity against human H116 cells
# [3] = tested on: HT-29; test: Cytotoxicity against human HT-29 cells
compound,measurement,setting,value
COC(=O)CC[C@@H]1C(=C(C)C)CC[C@H]2[C@@]1(C)CC[C@H](C)[C@]2(C)Cc1cc(O)cc(C)c1O,IC50,[1],2.5 µg/mL
same,IC50,[2],2.5 µg/mL
same,IC50,[3],< 2.5 µg/mL
